Source: US10537610B1, “Peptide for inhibition of cancer” (priority 2018, dated 2020)
Non-standard residues stand in square brackets, D forms with d. Residues, ends and D or L forms follow the SMILES beside them.

Assays:
Type in all cases: cell-based, human
[1] = system: breast cancer cells (MCF-7, MDA-MB-231) on HMEC-1 cells; experiment: Adhesion of breast cancer cells to endothelial monolayer under static conditions; settings: P4D 500 μM
Experimental: The peptides were synthesized and purified by LifeTein, LLC (Somerset, N.J., USA) with the purity of not less than 95% using PeptideSyn™ technology that incorporates solid phase fluorenylmethyloxycarbonyl (Fmoc) chemistry. The cells were treated with the peptide P4D for 0, 1, 5, or 24 hours at a concentration of 500 μM. The cells treated with the Scrambled peptide P4D (Scr; 500 μM; 0, 1, 5, or 24 hours incubation time) were used as a negative control. In order to provide the positive control of the junctions tightening for impedance-based measurements of endothelial permeability, the cells were incubated with the potent activator of TJ assembly, forskolin (FSK; BioShop, Burlington, ON, Canada), for 24 hours at a concentration of 10 μM.
Adhesion of human breast cancer (MCF-7, MDA-MB-231) or non-tumorigenic (MCF-10A) human breast cells to HMEC-1 cells was performed in 24-well plates. HMEC-1 cells were seeded to the bottom of the fibronectin-coated wells 2 days before the assay to form the monolayer and subjected to a suitable treatment. Breast cancer or non-tumorigenic cells were starved overnight and on the day of the assay were labeled with CellTracker Green CMFDA Dye for 30 minutes. […] The adherent cells were lysed by 2% SDS and the fluorescence was measured using the Wallac 1420 VICTOR2 Multilabel Counter (PerkinElmer) at 492 nm of excitation and 517 nm of emission wavelengths.

[2] = system: HMEC-1 endothelial monolayer; experiment: Macromolecular permeability of endothelial monolayer (FITC-dextran tracer assay)
Experimental: Macromolecular permeability of endothelial monolayer was analyzed by macromolecular tracer assay. HMEC-1 cells were grown in Transwell inserts with polyethylene terephthalate (PET) filters and 0.4-μm pores (Falcon, cat. #353095) in 24-well plates (Falcon, cat. #351147) at 1.5×10^5 cells/insert and immediately treated with P4D peptide (P4D) or with Scrambled P4D peptide (Scr) at a concentration of 500 μM (the samples indicated as 0 hours of incubation). Non-treated cells served as a control sample (Ctrl). Moreover, HMEC-1 cells were treated with P4D peptide at the following periods of time after seeding: 1 hour, 5 hours and 24 hours. One hour after the last treatment with P4D (24 hours) FITC-dextran with a molecular weight of 40 kDa was added into the inserts and the culture medium from the wells was replaced with PBS. After 1 hour incubation in darkness in a humidified incubator with the temperature of 37° C. and 5% CO2 atmosphere, the PBS from the wells (outside the inserts) was transferred into the wells of a black 96-well plate and the fluorescence was measured using the Wallac 1420 VICTOR2 Multilabel Counter (PerkinElmer, Waltham, Mass., USA) at 492 nm of excitation and 517 nm of emission wavelengths.

JAM-A (CD321) = experiment: Flow cytometry of JAM-A (CD321) on the surface of HMEC-1 cells; settings: Tβ4 200 nM, TGF-β1 10 ng/ml or TNF-α 10 ng/mL, 24 hours
From the text: For the detection of JAM-A surface expression the cells were labeled with FITC anti-human CD321 (F11R) Mouse IgG1 Antibody (BioLegend, San Diego, Calif., USA) or with the FITC Mouse IgG1 Isotype Control Antibody (BioLegend) for the negative control. Labeled cells were washed to remove unbound antibodies, harvested with ice cold EDTA/PBS, fixed with BD CellFix (Becton Dickinson. Franklin Lakes, N.J., USA) and subsequently analyzed by FACS Canto II flow cytometer (Becton Dickinson). Upon excitation at 488 nm with an argon laser the emission of the fluorescence was recorded through selective band pass filter at 517 nm. Data were recorded with DIVA software, version 6.0 (Becton Dickinson) and subsequently analyzed using FCSalyzer software, version 0.9.14-alpha (https://sourceforge.net/projects/fcsalyzer/).

Compound	adhesion of MECs to inflamed endothelial monolayer ([1]; HMEC-1 preincubated with TNF-α 10 ng/ml and IFN-γ 20 ng/ml for 24 hours)	extent of adhesion inhibition, MDA-MB-231 cells compared with other MECs ([1]; cytokine-inflamed HMEC-1)	effect on preexisting tight junctions (FITC-dextran flux) ([2]; P4D 500 μM applied 1, 5 or 24 hours after seeding)	transendothelial flux of 40-kDa FITC-dextran ([2]; P4D 500 μM applied immediately after the cells were seeded (0 hours))	JAM-A (CD321) level on the cell surface (JAM-A (CD321))
CC(C)[C@H](NC(=O)[C@H](CO)NC(=O)[C@H](N)CCCCN)C(=O)N[C@H](C(=O)N[C@H](CCCNC(=N)N)C(=O)N[C@@H](CCC(=O)O)C(=O)N[C@@H](CC(=O)O)C(=O)N[C@H](C(=O)NCC(=O)N[C@H](C(=O)N[C@@H](Cc1ccc(O)cc1)C(=O)N[C@H](C(=O)N[C@@H](CS)C(N)=O)[C@@H](C)O)[C@@H](C)O)[C@@H](C)O)[C@@H](C)O [Peptide P4D, NH2-(dK)-SVT-(dR)-EDTGTYTC-CONH2] (H-[dK]SVT[dR]EDTGTYTC-NH2)	restrained the adhesion of MECs to the inflamed endothelial monolayer	most pronounced	did not disrupt the preexisting ones	elevated	–
Thymosin β4 (SDKPDMAEIEKFDKSKLKKTETQEKNPLPSKETIEQEKQAGES; not fully specified; Thymosin beta-4; UniProt P62328 2-44, looked up) [Tβ4]	–	–	–	–	slightly decreased JAM-A level on the membrane of HMEC-1 cells
